ChEMBL document CHEMBL5053554, “Identification of novel influenza polymerase PB2 inhibitors using virtual screening approach and molecular dynamics simulation analysis of active compounds” (Bioorg Med Chem, 2021)
pEC50, pKd: −log10 of the molar value.

How the values were obtained:
[1] = Antiviral activity against Influenza A virus (A/Hong Kong/1-8/1968(H3N2)) infected in MDCK cells assessed as inhibition of virus-induced cytopathic effect measured after 72 hrs by CellTiter-Glo viability assay; format: functional, cell-based
[2] = target: Polymerase basic protein 2 (Influenza A virus (strain A/Puerto Rico/8/1934 H1N1), UniProt P03428); assay: Binding affinity to CM5 immobilized N-terminal His/Sumo tagged Influenza A virus (A/WSN/1933(H1N1)) PB2 CBD (318 to 486 residues) expressed in Escherichia coli by surface plasmon resonance assay
Chain of Polymerase basic protein 2 (P03428 whole entry, the tested form may be a part): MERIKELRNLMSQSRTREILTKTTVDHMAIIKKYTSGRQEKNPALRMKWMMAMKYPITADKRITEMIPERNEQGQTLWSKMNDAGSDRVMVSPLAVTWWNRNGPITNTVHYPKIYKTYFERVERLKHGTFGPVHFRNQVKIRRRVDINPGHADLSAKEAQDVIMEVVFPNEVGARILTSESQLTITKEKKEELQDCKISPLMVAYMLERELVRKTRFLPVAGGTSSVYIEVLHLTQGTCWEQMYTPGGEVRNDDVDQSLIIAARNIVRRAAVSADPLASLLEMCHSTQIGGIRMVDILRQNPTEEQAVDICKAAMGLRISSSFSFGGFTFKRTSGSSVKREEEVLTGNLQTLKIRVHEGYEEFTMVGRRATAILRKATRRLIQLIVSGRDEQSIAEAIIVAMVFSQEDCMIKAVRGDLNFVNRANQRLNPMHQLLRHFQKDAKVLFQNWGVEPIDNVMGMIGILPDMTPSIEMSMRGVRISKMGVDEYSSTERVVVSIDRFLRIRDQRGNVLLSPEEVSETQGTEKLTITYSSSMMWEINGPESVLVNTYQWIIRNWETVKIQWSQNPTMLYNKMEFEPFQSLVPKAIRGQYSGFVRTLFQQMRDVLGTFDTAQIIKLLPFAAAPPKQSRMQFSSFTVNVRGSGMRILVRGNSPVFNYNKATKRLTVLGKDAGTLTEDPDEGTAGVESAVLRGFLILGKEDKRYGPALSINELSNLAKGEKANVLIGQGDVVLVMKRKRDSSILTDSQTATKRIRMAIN

[3] = Cytotoxicity against MDCK cells assessed as reduction in cell viability measured after 72 hrs by CCK8 analysis; format: cell-based, Canis lupus familiaris; settings: dog
[4] = test system: Influenza A virus (A/Puerto Rico/8/1934(H1N1)); assay: Antiviral activity against Influenza A virus (A/Puerto Rico 8/1934 (H1N1)) infected in MDCK cells assessed as inhibition of virus-induced cytopathic effect measured after 72 hrs by CellTiter-Glo viability assay; format: functional, organism-based

SMILES	pEC50 [1]	pKd [2]	CC50 at 72 h [3]	pEC50 [4]
O=C(O)[C@H]1C2CCC(CC2)[C@@H]1Nc1nc(-c2c[nH]c3ncc(F)cc23)ncc1F [PIMODIVIR]	5.74	7.27	> 100 µM	> 8.30
O=c1[nH]c2ccc(NCc3ccc(Cl)c(Cl)c3)cc2[nH]1	5.13	5.19	> 100 µM	4.66
O=C(O)CSc1cc(O)c2c(c1O)C(=O)c1ccccc1C2=O	5.12	6.24	49.7 µM	5.24
O=C(c1cc(=O)[nH]c2ccccc12)N1CCc2[nH]c3ccccc3c2C1	4.38	5.80	> 100 µM	4.37
CCC(CC)O[C@@H]1C=C(C(=O)O)C[C@H](N)[C@H]1NC(C)=O [OSELTAMIVIR CARBOXYLATE]	7.52	–	> 100 µM	5.51
O=C(O)CSc1nc(-c2ccccc2)nc2c1oc1ccccc12	4.57	6.60	> 100 µM	4.65
Cc1c(O[C@H](C(=O)O)c2ccccc2)ccc2c1oc(=O)c1ccccc12	4.82	6.96	> 100 µM	4.58
O=C1c2ccccc2C(=O)c2cc(OC[C@H](O)Cn3cnc4ccccc43)ccc21	4.60	5.66	> 100 µM	4.48
